Key:
[1] = target: T1, mTOR (Homo sapiens, UniProt P42345); test: mTOR HTR-FRET Assay; format: biochemical; details: HTR-FRET screening assay, GST-p70S6 kinase fragment substrate
T1 construct: Dilute TOR fraction 1:14 in “Simple TOR Buffer”
Procedure: The following is an example of an assay that can be used to determine the mTOR inhibitory activity of a test compound. Reagents are prepared as follows:
“Simple TOR buffer” (used to dilute high glycerol TOR fraction): 10 mM Tris pH 7.4, 100 mM NaCl, 0.1% Tween-20, 1 mM DTT (from 1M stock frozen at −20° C. just prior to use). For convenience a large quantity of “Simple TOR buffer” w/o DTT can be stored at 4° C. It can be brought to room temperature and DTT added just prior to dilution of TOR fraction.
5×KB/5×Mn/5×ATP solution (used to dilute substrate GST-p70S6kin 81 a.a. just prior to use) (40 ml screen quantity shown):
Enzyme solution: Dilute TOR fraction 1:14 in “Simple TOR Buffer”. For current lot that is 640 μg/ml TOR fraction diluted 14× to yield 45.7 μg/ml TOR in buffer (i.e. 7.85 ml TOR pooled fraction+102.1 ml Simple TOR buffer=110 ml 14× diluted TOR fraction). Each Enzyme Lot must be QC'd prior to assay.
Substrate solution: This may be prepared just prior to assay if preferred. Dilute 5.3 mg/ml GST-p70S6kinase fragment stock to 3.5 μg/ml (97 nM) working stock in 5×KB/5×Mn/5×ATP solution (i.e. 26.41 μL (5.3 mg/ml) GST-p70S6+40 ml 5×KB/5×Mn/5×ATP=40 ml 3.5 μg/ml (97 nM)).
Assay Buffer (for dilution of Antibodies used in Antibody Detection Reagent):
Antibody Detection Reagent (this reagent should be made just prior to addition to Assay Plates):
Using PlateTrak program (Screen) or Matrix Pipettor (SAR), 19.5 μL of diluted TOR fraction is added to assay plate in all test, reference or positive control wells. 19.5 μL of “Simple TOR buffer” is added to all negative control wells. If treating multiple plates with the same compounds, can increase volume of enzyme to multiples of 19.5 μL in a tall 384 well polypropylene plate.
Using EP3, 0.5 μl of test, reference or control DMSO is added to each well with mixing. Plates are incubated for 30 minutes at room temperature.
Using PlateTrak program (Screen) or Matrix Pipettor (SAR) 5 μL of 5×KB/5×Mn/5×ATP/5× substrate solution is added to each well of the assay plate to start the reaction. The solutions are mixed well and incubated for 2 hours at room temperature.
Using PlateTrak program (Screen) or Matrix Pipettor (SAR) 5 μL of 60 mM EDTA is added to stop the reaction. The solutions are mixed well and allowed to sit for 15-20 minutes before the next step.
Using PlateTrak program (Screen) or Matrix Pipettor (SAR) 10 μl of Antibody Detection Reagent is added. The solutions are mixes well and incubated for 5 hours to O/N to allow antibodies to form complexes with phosphorylated substrate.
Plates are read on AnalystHT using protocol Multi-Method protocol.

[2] = target: T2, PKCθ (Homo sapiens, UniProt Q04759); test: PKCθ IMAP Assay; format: biochemical; details: IMAP fluorescence polarization screening assay, 35 μM ATP
T2 construct: purchased Invitrogen
T2 sequence (Q04759 whole entry): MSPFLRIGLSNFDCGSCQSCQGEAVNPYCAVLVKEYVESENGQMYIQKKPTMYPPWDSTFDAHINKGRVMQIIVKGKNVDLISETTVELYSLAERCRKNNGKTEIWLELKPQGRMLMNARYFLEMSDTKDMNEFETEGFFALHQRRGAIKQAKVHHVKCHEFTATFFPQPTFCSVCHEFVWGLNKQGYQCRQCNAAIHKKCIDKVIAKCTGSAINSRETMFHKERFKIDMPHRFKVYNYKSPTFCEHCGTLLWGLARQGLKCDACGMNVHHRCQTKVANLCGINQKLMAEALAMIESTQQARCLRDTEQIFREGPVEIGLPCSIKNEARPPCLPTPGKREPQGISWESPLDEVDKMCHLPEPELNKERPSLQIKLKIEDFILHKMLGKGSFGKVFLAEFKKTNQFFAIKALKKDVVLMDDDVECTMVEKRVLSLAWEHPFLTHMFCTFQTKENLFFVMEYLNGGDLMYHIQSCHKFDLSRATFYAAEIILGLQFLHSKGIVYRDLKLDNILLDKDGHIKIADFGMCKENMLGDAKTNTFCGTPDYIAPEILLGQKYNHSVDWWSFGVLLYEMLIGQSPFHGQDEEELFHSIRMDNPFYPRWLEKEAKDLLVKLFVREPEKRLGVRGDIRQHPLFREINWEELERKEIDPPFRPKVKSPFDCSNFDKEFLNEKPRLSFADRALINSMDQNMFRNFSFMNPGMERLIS
Procedure: The following is an example of an assay that can be used to determine the PKCθ inhibitory activity of a test compound. Reagents are prepared as follows:
Assay Buffer: 50 mM HEPES (pH 7.6), 10 mM MgCl, 0.1 mM EDTA, 5 mM MBP, 0.01% Triton, 1 mM DTT, 0.05 mg/ml phosphatidyl serine, 0.05 mg/ml diacylglycerol.
The final concentration of PKCθ (Invitrogen) is 0.5 nM. The final concentration of substrate (FAM-AKRRRLSSLRA) (Molecular Devices) is 100 nM. The final concentration of ATP in the reaction is 35 μM. The final concentration of DMSO in the reaction is 2.5%.
Enzyme is kept in 5 μl aliquots and stored at −80° C. prior to use. Test compound is allowed to pre-incubate with enzyme for 45 minutes before the reactions is initiated.
The reaction mixture consists of: 5 μl of test compound in 10% DMSO, 5 μl of 400 nM substrate (FAM-AKRRRLSSLRA), 5 μl of […] PKCθ, and 5 μl of 140 μM ATP (ATP is added to the reaction mixture last to initiate the reaction) per well.
The reaction is allowed to proceed for 60 minutes and is terminated by adding 30 μl per well of 90% Progressive A buffer/10% Progressive B buffer and a 1:400 dilution of binding beeds (Molecular Devices).
The reaction is given a binding incubation time of at least 30 minutes prior to reading the fluorescence polarization signal on an Analyst reader (the following detector settings are used: fluorescein excitation-485 nm, fluorescein emission-530 nm, fluorescein dichroic-505 nm).

IC50 [1] [µM] | IC50 [2] [µM] | Compound
> 30 | 0.1 to 5 | CC[C@H](c1ccccc1)n1c(=O)[nH]c2ncc(-c3cccc4ncccc34)nc21 [Compound 45, (R)-1-(1-phenylpropyl)-6-(quinolin-5-yl)-1H-imidazo[4,5-b]pyrazin-2(3H)-one]
> 30 | 5.1 to 10 | CC(c1ccccc1)n1c(=O)[nH]c2ccc(-c3cccc4ncccc34)nc21 (stereo not shown) [Compound 26, 3-(1-phenylethyl)-5-(quinolin-5-yl)-1H-imidazo[4,5-b]pyridin-2(3H)-one]
> 30 | 5.1 to 10 | C[C@H](c1ccccc1)n1c(=O)[nH]c2ccc(-c3cccc4ncccc34)nc21 [Compound 27, (R)-3-(1-phenylethyl)-5-(quinolin-5-yl)-1H-imidazo[4,5-b]pyridin-2(3H)-one]
> 30 | > 30 | Cc1nc2[nH]c(=O)n([C@@H](C)c3ccccc3)c2nc1-c1cccc2ncccc12 [Compound 68, 5-methyl-1-((S)-1-phenylethyl)-6-(quinolin-5-yl)-1H-imidazo[4,5-b]pyrazin-2(3H)-one]
5.1 to 10 | > 30 | C[C@@H](c1ccccc1)n1c(=O)[nH]c2ncc(-c3cccc4ncccc34)nc21 [Compound 5, (S)-1-(1-phenylethyl)-6-(quinolin-5-yl)-1H-imidazo[4,5-b]pyrazin-2(3H)-one]
5.1 to 10 | 10.1 to 20 | CC(c1ccccc1)n1c(=O)[nH]c2ncc(-c3cccc4cnccc34)nc21 (stereo not shown) [Compound 61, 6-(isoquinolin-5-yl)-1-(1-phenylethyl)-1H-imidazo[4,5-b]pyrazin-2(3H)-one]
5.1 to 10 | 0.1 to 5 | O=c1[nH]c2ncc(-c3cccc4ncccc34)nc2n1[C@H](CO)c1ccccc1 [Compound 41, (S)-1-(2-hydroxy-1-phenylethyl)-6-(quinolin-5-yl)-1H-imidazo[4,5-b]pyrazin-2(3H)-one]
5.1 to 10 | 5.1 to 10 | CC(c1ccccc1F)n1c(=O)[nH]c2ncc(-c3cccc4ncccc34)nc21 (stereo not shown) [Compound 51, 1-(1-(2-fluorophenyl)ethyl)-6-(quinolin-5-yl)-1H-imidazo[4,5-b]pyrazin-2(3H)-one]
5.1 to 10 | 0.1 to 5 | CC(c1ccc(F)cc1)n1c(=O)[nH]c2ncc(-c3cccc4ncccc34)nc21 (stereo not shown) [Compound 52, 1-(1-(4-fluorophenyl)ethyl)-6-(quinolin-5-yl)-1H-imidazo[4,5-b]pyrazin-2(3H)-one]
5.1 to 10 | 0.1 to 5 | CC(c1cccc(F)c1)n1c(=O)[nH]c2ncc(-c3cccc4ncccc34)nc21 (stereo not shown) [Compound 54, 1-(1-(3-fluorophenyl)ethyl)-6-(quinolin-5-yl)-1H-imidazo[4,5-b]pyrazin-2(3H)-one]
10.1 to 20 | 10.1 to 20 | O=c1[nH]c2ncc(-c3cccc4ncccc34)nc2n1[C@@H](CO)c1ccccc1 [Compound 40, (R)-1-(2-hydroxy-1-phenylethyl)-6-(quinolin-5-yl)-1H-imidazo[4,5-b]pyrazin-2(3H)-one]
10.1 to 20 | 0.1 to 5 | C[C@H](c1ccccc1)n1c(=O)[nH]c2ncc(-c3cccc4ncccc34)nc21 [Compound 10, (R)-1-(1-phenylethyl)-6-(quinolin-5-yl)-1H-imidazo[4,5-b]pyrazin-2(3H)-one]

More lines, now with the values behind:

Compound | IC50 [1] [µM] | IC50 [2] [µM]
Cc1nc2[nH]c(=O)n([C@H](C)c3ccccc3)c2nc1-c1cccc2ncccc12 [Compound 69, 5-methyl-1-((R)-1-phenylethyl)-6-(quinolin-5-yl)-1H-imidazo[4,5-b]pyrazin-2(3H)-one] | > 30 | 5.1 to 10
CC(c1ccccc1)n1c(=O)[nH]c2ncc(-c3ccc(S(C)(=O)=O)cc3)nc21 (stereo not shown) [Compound 85, 6-(4-(methylsulfonyl)phenyl)-1-(1-phenylethyl)-1H-imidazo[4,5-b]pyrazin-2(3H)-one] | 5.1 to 10 | > 30
COc1cccc(Cn2c(=O)[nH]c3ncc(-c4ccc(S(C)(=O)=O)cc4)nc32)c1 [Compound 4, 1-(3-methoxybenzyl)-6-(4-(methylsulfonyl)phenyl)-1H-imidazo[4,5-b]pyrazin-2(3H)-one] | 0.1 to 5 | > 30
O=c1[nH]c2ncc(-c3cccc4ncccc34)nc2n1Cc1ccccc1 [Compound 14, 1-benzyl-6-(quinolin-5-yl)-1H-imidazo[4,5-b]pyrazin-2(3H)-one] | 0.1 to 5 | > 30
CC(c1ccccc1)n1c(=O)[nH]c2ncc(-c3ccc4ncccc4c3)nc21 (stereo not shown) [Compound 73, 1-(1-phenylethyl)-6-(quinolin-6-yl)-1H-imidazo[4,5-b]pyrazin-2(3H)-one] | 5.1 to 10 | > 30
O=c1[nH]c2ncc(-c3cccc4ncccc34)nc2n1C1CCCOC1 (stereo not shown) [Compound 58, 6-(quinolin-5-yl)-1-(tetrahydro-2H-pyran-3-yl)-1H-imidazo[4,5-b]pyrazin-2(3H)-one] | 10.1 to 20 | > 30
COc1ccc(C(C)n2c(=O)[nH]c3ncc(-c4cccc5ncccc45)nc32)cc1 (stereo not shown) [Compound 56, 1-(1-(4-methoxyphenyl)ethyl)-6-(quinolin-5-yl)-1H-imidazo[4,5-b]pyrazin-2(3H)-one] | > 30 | 0.1 to 5
O=c1[nH]c2ncc(-c3cccc4ncccc34)nc2n1C1CCC(O)CC1 (stereo not shown) [Compound 60, 1-((1r,4r)-4-hydroxycyclohexyl)-6-(quinolin-5-yl)-1H-imidazo[4,5-b]pyrazin-2(3H)-one] | > 30 | 20.1 to 30
COc1ccc(Cn2c(=O)[nH]c3ncc(-c4cccc5ncccc45)nc32)cc1 [Compound 15, 1-(4-methoxybenzyl)-6-(quinolin-5-yl)-1H-imidazo[4,5-b]pyrazin-2(3H)-one] | 0.1 to 5 | > 30
O=c1[nH]c2ncc(-c3cccc4ncccc34)nc2n1C1CCC(O)CC1 (stereo not shown) [Compound 59, 1-((1s,4s)-4-hydroxycyclohexyl)-6-(quinolin-5-yl)-1H-imidazo[4,5-b]pyrazin-2(3H)-one] | 10.1 to 20 | 10.1 to 20
CC(C)n1c(=O)[nH]c2ncc(-c3cccc4ncccc34)nc21 [Compound 64, 1-isopropyl-6-(quinolin-5-yl)-1H-imidazo[4,5-b]pyrazin-2(3H)-one] | 5.1 to 10 | 20.1 to 30
C[C@@H](c1ccccc1)n1c(=O)[nH]c2cnc(-c3cccc4ncccc34)cc21 [Compound 25, (S)-1-(1-phenylethyl)-6-(quinolin-5-yl)-1H-imidazo[4,5-c]pyridin-2(3H)-one] | > 30 | > 30
COc1cccc(Cn2c(=O)[nH]c3ncc(-c4cccc5ncccc45)nc32)c1 [Compound 47, 1-(3-methoxybenzyl)-6-(quinolin-5-yl)-1H-imidazo[4,5-b]pyrazin-2(3H)-one] | 0.1 to 5 | > 30
COc1cc(-c2cnc3[nH]c(=O)n(CC4CCOCC4)c3n2)cc(OC)c1OC [Compound 2, 1-((tetrahydro-2H-pyran-4-yl)methyl)-6-(3,4,5-trimethoxyphenyl)-1H-imidazo[4,5-b]pyrazin-2(3H)-one] | 0.1 to 5 | > 30

Source: patent publication US7981893B2, “Heteroaryl compounds, compositions thereof, and methods of treatment therewith” (Signal Pharmaceuticals, LLC, priority 2006, dated 2011)
